# Test results published in patent publication US11590129B2, “Combination therapy with an antitumor alkaloid” (PHARMA MAR, S.A., priority 2010, dated 2023).
# Test system: A2780 tumors
# Assay: Human ovarian tumor xenografts (A2780) in athymic nude mice, tumor volume % T/C
# Assay type: in vivo
# Method: Female athymic nude mice (Harlan Laboratories Models, S.L. (Barcelona, Spain) were utilized for all experiments. Animals were housed in individually ventilated cages, up to ten per cage in a 12-hour light-dark cycle at 21-23° C. and 40-60% humidity. The mice were allowed free access to irradiated standard rodent diet and sterilized water. Animals were acclimated for at least 5 days prior to tumor implantation with a tumor cell suspension.
# The formula to calculate volume for a prolate ellipsoid was used to estimate tumor volume (mm^3) from 2-dimensional tumor measurements: Tumor volume (mm^3)=[L×W^2]÷2, where L is the length and it is the longest diameter in mm, and W is the width and it is the shortest diameter in mm of a tumor. Assuming unit density, volume was converted to weight (i.e., 1 mm^3=1 mg). Tumor volume and animal body weights were measured 2-3 times per week starting form the first day of treatment (Day 0).
# PM01183 was provided in the form of vials of lyophilized PM01183 cake which was reconstituted with water for infusion to a concentration of 0.2 mg/mL. The PM01183 stock solution was further diluted in 5% glucose solution for injection to the dosing formulation concentrations. […] Vinorelbine was provided as a solution prepared by diluting the product with 0.9% saline solution.
# Dose level groups were administered either as single agents or in combination.
# Comparison of the median tumor volume in the treatment groups (T) to the median tumor volume in the control group (T/C×100%) was used for evaluation of the antitumor efficacy.
# Day 9 for PM01183 and vinorelbine study) using the median-effect principle (Chou T. C. Pharmacol. Rev.
# [1] = PM01183 0.045 mg/kg iv days 0,7, doxorubicin study
# [2] = PM01183 0.045 mg/kg iv days 0,7, paclitaxel study
# [3] = PM01183 0.045 mg/kg iv days 0,7, vinorelbine study
# [4] = PM01183 0.09 mg/kg iv days 0,7, doxorubicin study
# [5] = PM01183 0.09 mg/kg iv days 0,7, paclitaxel study
# [6] = PM01183 0.09 mg/kg iv days 0,7, vinorelbine study
# [7] = PM01183 0.135 mg/kg iv days 0,7, doxorubicin study
# [8] = PM01183 0.135 mg/kg iv days 0,7, paclitaxel study
# [9] = PM01183 0.135 mg/kg iv days 0,7, vinorelbine study
# [10] = PM01183 0.18 mg/kg iv days 0,7, doxorubicin study
# [11] = PM01183 0.18 mg/kg iv days 0,7, paclitaxel study
# [12] = PM01183 0.18 mg/kg iv days 0,7, vinorelbine study
smiles,measurement,setting,value
COc1ccc2[nH]c3c(c2c1)CCN[C@]31CS[C@@H]2c3c(OC(C)=O)c(C)c4c(c3[C@H](COC1=O)N1[C@@H]2[C@H]2c3c(cc(C)c(OC)c3O)C[C@@H]([C@@H]1O)N2C)OCO4 [PM01183],% T/C on day 0,[1],100.1%
same,% T/C on day 3,[1],98.2%
same,% T/C on day 5,[1],98.6%
same,% T/C on day 7,[1],97.7%
same,% T/C on day 10,[1],90.0%
same,% T/C on day 0,[2],94.0%
same,% T/C on day 3,[2],91.1%
same,% T/C on day 5,[2],99.6%
same,% T/C on day 7,[2],88.0%
same,% T/C on day 10,[2],73.1%
same,% T/C on day 0,[3],97.8%
same,% T/C on day 2,[3],107.5%
same,% T/C on day 5,[3],93.6%
same,% T/C on day 7,[3],92.5%
same,% T/C on day 9,[3],97.1%
same,% T/C on day 0,[4],100.2%
same,% T/C on day 3,[4],93.3%
same,% T/C on day 5,[4],95.2%
same,% T/C on day 7,[4],93.5%
same,% T/C on day 10,[4],87.7%
same,% T/C on day 0,[5],94.2%
same,% T/C on day 3,[5],88.5%
same,% T/C on day 5,[5],114.1%
same,% T/C on day 7,[5],103.3%
same,% T/C on day 10,[5],88.0%
same,% T/C on day 0,[6],98.0%
same,% T/C on day 2,[6],88.6%
same,% T/C on day 5,[6],61.2%
same,% T/C on day 7,[6],87.6%
same,% T/C on day 9,[6],94.5%
same,% T/C on day 0,[7],102.2%
same,% T/C on day 3,[7],82.4%
same,% T/C on day 5,[7],86.6%
same,% T/C on day 7,[7],89.2%
same,% T/C on day 10,[7],82.4%
same,% T/C on day 0,[8],101.2%
same,% T/C on day 3,[8],89.9%
same,% T/C on day 5,[8],99.8%
same,% T/C on day 7,[8],84.5%
same,% T/C on day 10,[8],61.2%
same,% T/C on day 0,[9],98.3%
same,% T/C on day 2,[9],105.3%
same,% T/C on day 5,[9],77.2%
same,% T/C on day 7,[9],79.1%
same,% T/C on day 9,[9],78.7%
same,% T/C on day 0,[10],100.9%
same,% T/C on day 3,[10],70.2%
same,% T/C on day 5,[10],68.5%
same,% T/C on day 7,[10],69.3%
same,% T/C on day 10,[10],62.1%
same,% T/C on day 0,[11],101.6%
same,% T/C on day 3,[11],68.9%
same,% T/C on day 5,[11],83.1%
same,% T/C on day 7,[11],69.1%
same,% T/C on day 10,[11],52.8%
same,% T/C on day 0,[12],98.9%
same,% T/C on day 2,[12],101.6%
same,% T/C on day 5,[12],72.2%
same,% T/C on day 7,[12],61.3%
same,% T/C on day 9,[12],62.8%
